Measurements from patent US20210403485A1, “PYRAZOLOPYRIMIDINE DERIVATIVE AS SELECTIVE TRK INHIBITOR” (SHANDONG LUYE PHARMACEUTICAL CO., LTD., priority 2018, published 2021).
Values belong to the compound of their own block, whether it stands above or below them.

Key:
[1] = test system: Ba/F3 ETV6-NTRK3 cells; assay: Efficacy test in animals: subcutaneous xenograft, intragastric administration; assay type: in vivo, nude mice; conditions: for TGI (tumor growth inhibition rate): day of dissection; for Tumor inhibition rate (by tumor weight) / Tumor weight: end of the test
Procedure: Cells in the logarithmic growth phase were collected and resuspended in serum-free medium to a cell concentration of 2-4×10^7 cells/mL. An equal volume of matrigel was added to the cell suspension to achieve a final cell concentration of 1-2×10^7 cells/mL. 0.2 mL of tumor cell suspension was subcutaneously inoculated at the scapula of each nude mouse with the inoculation amount of 2-4×10^6 cells/mouse to prepare the animal models.

[2] = biological target: T1, BaF3 LMNA-NTRK1-G667A (Homo sapiens, UniProt P04629, G667A, cells depend on it); assay: Inhibitory activity against cell proliferation (CellTiter-Glo, 72 hours); assay type: cell-based; conditions: read-out: Half maximal inhibitory concentration IC50 of cells, BaF3 LMNA-NTRK1-G667A
T1 construct: fused on or other part: N-terminal part of LMNA as fusion partner (part of the key); P02545 (Prelamin-A/C)
T1 sequence (P04629 whole entry G667A, the tested form may be a part): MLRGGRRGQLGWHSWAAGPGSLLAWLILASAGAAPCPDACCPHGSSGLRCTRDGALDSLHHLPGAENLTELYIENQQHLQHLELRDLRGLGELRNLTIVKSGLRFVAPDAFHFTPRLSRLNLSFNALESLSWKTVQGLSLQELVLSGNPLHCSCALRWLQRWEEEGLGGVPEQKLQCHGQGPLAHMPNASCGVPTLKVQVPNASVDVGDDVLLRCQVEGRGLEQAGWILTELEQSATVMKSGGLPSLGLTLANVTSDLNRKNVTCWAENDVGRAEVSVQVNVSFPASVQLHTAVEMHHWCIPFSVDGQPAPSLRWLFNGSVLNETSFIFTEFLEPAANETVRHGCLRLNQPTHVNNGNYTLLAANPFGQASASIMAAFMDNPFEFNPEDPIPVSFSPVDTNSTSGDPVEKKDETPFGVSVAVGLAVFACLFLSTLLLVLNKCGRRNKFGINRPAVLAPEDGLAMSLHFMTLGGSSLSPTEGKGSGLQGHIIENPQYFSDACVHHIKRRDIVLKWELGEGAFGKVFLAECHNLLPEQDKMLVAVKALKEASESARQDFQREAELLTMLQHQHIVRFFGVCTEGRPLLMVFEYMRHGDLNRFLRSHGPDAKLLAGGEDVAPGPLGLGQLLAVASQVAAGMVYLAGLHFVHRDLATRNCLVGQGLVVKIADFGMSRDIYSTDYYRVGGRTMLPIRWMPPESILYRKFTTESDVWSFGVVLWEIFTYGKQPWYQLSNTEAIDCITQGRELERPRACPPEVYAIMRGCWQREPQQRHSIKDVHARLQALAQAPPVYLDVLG
Procedure, shortened: (§1)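 Log-phase Ba/F3 cells (trypan blue viability above 90%) were treated in triplicate with a 9-point, 3-fold compound series. ATP-dependent luminescence was read after CellTiter-Glo addition, and IC50 values came from nonlinear sigmoidal dose-response fits.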

[3] = biological target: T2, BaF3 LMNA-NTRK1-G595R (Homo sapiens, UniProt P04629, G595R, cells depend on it); assay: as above; assay type: cell-based; conditions: read-out: Half maximal inhibitory concentration IC50 of cells, BaF3 LMNA-NTRK1-G595R
T2 construct: fused on or other part: N-terminal part of LMNA as fusion partner (part of the key); P02545 (Prelamin-A/C)
T2 sequence (P04629 whole entry G595R, the tested form may be a part): as the sequence (P04629 whole entry G667A, the tested form may be a part) above, with G595R, A667G counted along it
Procedure, shortened: as §1

[4] = biological target: T3, BaF3 ETV6-NTRK3-WT (Homo sapiens, UniProt Q16288); assay: as above; assay type: cell-based; conditions: read-out: Half maximal inhibitory concentration IC50 of cells, BaF3 ETV6-NTRK3-WT
T3 construct: fused on or other part: N-terminal part of ETV6 (TEL) as fusion partner (part of the key); P41212 (Transcription factor ETV6)
T3 sequence (Q16288 whole entry, change not shown, the tested form may be a part): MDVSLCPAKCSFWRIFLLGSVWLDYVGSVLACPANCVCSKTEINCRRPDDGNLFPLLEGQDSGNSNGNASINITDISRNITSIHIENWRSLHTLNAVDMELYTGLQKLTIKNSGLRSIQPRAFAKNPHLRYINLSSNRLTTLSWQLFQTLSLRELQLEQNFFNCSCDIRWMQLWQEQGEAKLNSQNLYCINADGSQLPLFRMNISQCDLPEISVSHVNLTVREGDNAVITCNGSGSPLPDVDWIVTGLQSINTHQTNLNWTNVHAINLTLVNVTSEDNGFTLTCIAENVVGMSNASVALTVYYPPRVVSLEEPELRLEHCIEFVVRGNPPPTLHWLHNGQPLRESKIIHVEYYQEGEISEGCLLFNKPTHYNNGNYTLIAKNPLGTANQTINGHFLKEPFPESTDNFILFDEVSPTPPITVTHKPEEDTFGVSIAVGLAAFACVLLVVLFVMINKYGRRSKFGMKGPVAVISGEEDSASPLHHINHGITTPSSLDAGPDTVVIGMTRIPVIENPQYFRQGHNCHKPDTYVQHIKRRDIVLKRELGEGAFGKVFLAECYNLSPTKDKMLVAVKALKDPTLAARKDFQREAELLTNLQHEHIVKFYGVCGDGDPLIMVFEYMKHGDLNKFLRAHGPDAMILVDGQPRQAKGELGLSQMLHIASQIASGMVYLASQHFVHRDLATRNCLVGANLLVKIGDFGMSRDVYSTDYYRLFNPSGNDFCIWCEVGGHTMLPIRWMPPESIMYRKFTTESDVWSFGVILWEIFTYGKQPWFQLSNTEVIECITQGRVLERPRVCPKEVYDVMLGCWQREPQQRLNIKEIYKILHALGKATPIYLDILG
Procedure, shortened: as §1

[5] = biological target: T4, Ba/F3 LMNA-NTRK1-F589L (Homo sapiens, UniProt P04629, F589L, cells depend on it); assay: as above; assay type: cell-based; conditions: read-out: Half maximal inhibitory concentration IC50 of cells, Ba/F3 LMNA-NTRK1-F589L
T4 construct: fused on or other part: N-terminal part of LMNA as fusion partner (part of the key); P02545 (Prelamin-A/C)
T4 sequence (P04629 whole entry F589L, the tested form may be a part): as the sequence (P04629 whole entry G667A, the tested form may be a part) above, with F589L, A667G counted along it
Procedure, shortened: as §1

[6] = Animal body weight and general observations, Ba/F3 ETV6-NTRK3 tumor-bearing nude mice
Procedure: The mice in groups were intragastrically administrated on the next day, and the animal body weight and the long and short diameters of the tumor were measured once every other day.

[7] = Pharmacokinetic test of compounds in mice (plasma, LC/MS/MS); assay type: in vivo, male CD-1 mice; conditions: for Vd: read-out: Apparent volume of distribution Vd; for AUC(0-t): read-out: Area under the curve AUC0-last; for half-life: read-out: Half-life T1/2 (converted); for Cmax: read-out: Peak concentration Cmax; for Tmax: read-out: Time to peak Tmax
Procedure: (§2) Experimental purpose: male CD-1 mice aged 7-9 weeks were selected as test animals, and the drug concentrations of the compounds in plasma at different time points after single intravenous injection (IV) and intragastric administration (PO) of the compounds were measured by an LC/MS/MS method, so that the pharmacokinetic behavior of the compounds disclosed herein in mice was studied, and the pharmacokinetic characteristic of the compounds was evaluated.
(§3) Drug preparation: the compounds were all prepared into clear solution by taking 5% DMSO+10% solutol+85% water as vehicle, and were used for administration in IV and PO groups. The dose of each compound administered was: IV, 3 mg/kg; PO, 10 mg/kg.

[8] = Pharmacokinetic test of compounds in rats (plasma, LC/MS/MS); assay type: in vivo, male SD rats; conditions: for AUC(0-t): read-out: Area under the curve AUC0-last
Procedure: as §2, with “SD rats” for “CD-1 mice”, “rats” for “mice”
as §3

[9] = male, CD-1, mouse, plasma, IV, 3 mg/kg
[10] = male, CD-1, mouse, plasma, PO, 10 mg/kg

SMILES: C[C@@H]1CCc2ncc(F)cc2[C@H]2CCCN2c2ccn3ncc(c3n2)C(=O)N1 [LOXO-195, reference compound]
Tumor volume ([1]; Day 0, 100 mg/kg bid): 303.85 ± 42.83 mm^3 | Tumor volume ([1]; Day 3, 100 mg/kg bid): 351.06 ± 144.65 mm^3 | Tumor volume ([1]; Day 5, 100 mg/kg bid): 216.92 ± 62.19 mm^3 | Tumor volume ([1]; Day 7, 100 mg/kg bid): 174.13 ± 102.49 mm^3 | Tumor volume ([1]; Day 9, 100 mg/kg bid): 206.69 ± 107.53 mm^3 | Tumor volume ([1]; Day 11, 100 mg/kg bid): 196.07 ± 88.87 mm^3 | TGI (tumor growth inhibition rate) ([1]; 100 mg/kg bid): 94.80% | Tumor inhibition rate (by tumor weight) ([1]; 100 mg/kg bid): 94.86% | Tumor weight ([1]; 100 mg/kg bid): 0.09 ± 0.07 g | GI50 [2]: 24.4 nM | GI50 [3]: 6.8 nM | GI50 [4]: 2.6 nM | GI50 [5]: 44 nM | Rate of change in body weight (%) of day 11 to day 0 ([6]; 100 mg/kg bid): 4.9% | Body weight ([6]; Day 0, 100 mg/kg bid): 22.7 ± 2.7 g | Body weight ([6]; Day 3, 100 mg/kg bid): 24.4 ± 2.7 g | Body weight ([6]; Day 5, 100 mg/kg bid): 24.9 ± 2.6 g | Body weight ([6]; Day 7, 100 mg/kg bid): 25.1 ± 2.8 g | Body weight ([6]; Day 9, 100 mg/kg bid): 25.4 ± 3.0 g | Body weight ([6]; Day 11, 100 mg/kg bid): 25.2 ± 3.0 g | Apparent clearance Cl ([7]; IV, 3 mg/kg): 11.8 mL/kg/min | Bioavailability F % ([7]; PO, 10 mg/kg): 74% | Vd [7, 9]: 0.5 L/kg | AUC(0-t) [7, 9]: 11.1 µM·h | half-life [7, 9]: 71.4 min | AUC(0-t) [7, 10]: 27.3 µM·h | Cmax [7, 10]: 12.7 µM | Tmax [7, 10]: 22.8 min

Apparent clearance Cl ([8]; IV, 3 mg/kg): 45.6 mL/kg/min | Vd ([8]; male, SD, rat, plasma, IV, 3 mg/kg, read-out: Apparent volume of distribution Vd): 1.7 L/kg | AUC(0-t) ([8]; male, SD, rat, plasma, IV, 3 mg/kg): 1.7 µM·h | half-life ([8]; male, SD, rat, plasma, IV, 3 mg/kg, read-out: Half-life T1/2 (converted)): 36 min | AUC(0-t) ([8]; male, SD, rat, plasma, PO, 10 mg/kg): 1.93 µM·h | bioavailability ([8]; male, SD, rat, plasma, PO, 10 mg/kg, read-out: Bioavailability F %): 23% | Cmax ([8]; male, SD, rat, plasma, PO, 10 mg/kg, read-out: Peak concentration Cmax): 944 nM | Tmax ([8]; male, SD, rat, plasma, PO, 10 mg/kg, read-out: Time to peak Tmax): 48 min | Apparent clearance Cl ([7]; IV, 3 mg/kg): 37.4 mL/kg/min | Vd [7, 9]: 0.97 L/kg | AUC(0-t) [7, 9]: 3.12 µM·h | half-life [7, 9]: 23.4 min | AUC(0-t) [7, 10]: 2.89 µM·h | bioavailability ([7]; male, CD-1, mouse, plasma, PO, 10 mg/kg, read-out: Bioavailability F %): 28% | Cmax [7, 10]: 1.55 µM | Tmax [7, 10]: 22.8 min
SMILES: O=C(Nc1cnn2ccc(N3CCC[C@@H]3c3cc(F)ccc3F)nc12)N1CC[C@H](O)C1 [LOXO-101, larotrectinib, reference compound]
Tumor volume ([1]; Day 0, 60 mg/kg qd): 303.89 ± 50.02 mm^3 | Tumor volume ([1]; Day 3, 60 mg/kg qd): 510.07 ± 224.94 mm^3 | Tumor volume ([1]; Day 5, 60 mg/kg qd): 490.32 ± 170.06 mm^3 | Tumor volume ([1]; Day 7, 60 mg/kg qd): 731.42 ± 372.59 mm^3 | Tumor volume ([1]; Day 9, 60 mg/kg qd): 1289.62 ± 757.75 mm^3 | Tumor volume ([1]; Day 11, 60 mg/kg qd): 1361.88 ± 710.90 mm^3 | TGI (tumor growth inhibition rate) ([1]; 60 mg/kg qd): 63.87% | Tumor inhibition rate (by tumor weight) ([1]; 60 mg/kg qd): 63.49% | Tumor weight ([1]; 60 mg/kg qd): 0.64 ± 0.44 g | Rate of change in body weight (%) of day 11 to day 0 ([6]; 60 mg/kg qd): 4.4% | Body weight ([6]; Day 0, 60 mg/kg qd): 23.8 ± 1.6 g | Body weight ([6]; Day 3, 60 mg/kg qd): 22.9 ± 2.0 g | Body weight ([6]; Day 5, 60 mg/kg qd): 23.6 ± 2.2 g | Body weight ([6]; Day 7, 60 mg/kg qd): 23.9 ± 2.5 g | Body weight ([6]; Day 9, 60 mg/kg qd): 24.2 ± 2.2 g | Body weight ([6]; Day 11, 60 mg/kg qd): 24.7 ± 2.7 g
